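Results reflect a 48-hour exposure of cells in 96-well plates to compound at five concentrations. Abbreviation: GI50, concentration required for 50% inhibition of growth.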 Calls of active or inactive are those of the source. Cut-off read from the data, not from the text of the source: active = GI50 up to about 1.1 µM and inactive = higher.

Test systems include CCRF-CEM; COLO 205; DLD-1; EKVX; HCT-116; M14; M19-MEL; RPMI-8226; SF-268; SF-539; SK-MEL-28; SK-MEL-2; SK-MEL-5; UO-31; XF498; BT-549; DU-145; MCF7; T47D.
Test in all cases: NCI anticancer screen, dose series, 48 h

For `C=C1C[C@]23C[C@@]1(O)CC[C@H]2[C@@]12C=C[C@H](O)[C@@](C)(C(=O)O1)[C@H]2[C@@H]3C(=O)O` [GIBBERELLIN A3], the GI50 in the assay with CCRF-CEM, with COLO 205, in the assay with DLD-1, in the assay with EKVX, in the assay with HCT-116 and in the assay on M14 was > 100 µM (inactive) throughout. For the same compound, the GI50 in the assay with M19-MEL, with RPMI-8226, with SF-268, in the assay on SF-539, with SK-MEL-28 and in the assay on SK-MEL-2 was > 100 µM (inactive) each time. Further, the GI50 in the assay on SK-MEL-5, in the assay with UO-31 and with XF498 was > 100 µM (inactive) in each case.
Regarding `CCCCCCCCCCCCCCCC(=O)OCC1OC(OC)C2NP(=O)(N(CCCl)CCCl)OC1C2O` (centres undefined), the GI50 in the assay on BT-549 was 2.3 µM (inactive); in the assay with CCRF-CEM, 0.142 µM (active); in the assay with COLO 205 it was 4.22 µM (inactive); with DLD-1 it was 2.7 µM (inactive); in the assay on DU-145, 7.41 µM (inactive); with EKVX it was 22 µM (inactive). The GI50 is 3.3 µM (inactive) in the assay with HCT-116; 4.31 µM (inactive) with M14; 15.6 µM (inactive) with M19-MEL; 0.366 µM (active) in the assay with MCF7; 2.51 µM (inactive) in the assay with RPMI-8226; 1.67 µM (inactive) with SF-268. Also, the GI50 was 0.887 µM (active) with SF-539; 22.2 µM (inactive) in the assay with SK-MEL-28; 8.3 µM (inactive) with SK-MEL-2; 7.53 µM (inactive) in the assay on SK-MEL-5; 2.73 µM (inactive) in the assay with T47D; 7.36 µM (inactive) in the assay on UO-31. Moreover, the GI50 with XF498 was 2.31 µM (inactive).
`C1CCN2CC3CONC3C2C1` (centres undefined): the GI50 with CCRF-CEM, in the assay on COLO 205, in the assay with DLD-1, in the assay with EKVX, in the assay on HCT-116 and in the assay on M14 was > 100 µM (inactive) throughout. Further, the GI50 in the assay on M19-MEL, in the assay with RPMI-8226, with SF-268, in the assay with SF-539, in the assay with SK-MEL-28 and in the assay with SK-MEL-2 was > 100 µM (inactive) throughout. Moreover, the GI50 in the assay on SK-MEL-5, in the assay on UO-31 and in the assay on XF498 was > 100 µM (inactive) throughout.
Take `CCCCCCCCCCOC(=O)c1cc[n+](C)cc1`: the GI50 in the assay on CCRF-CEM was 17.5 µM (inactive); with COLO 205 it was 16.7 µM (inactive); in the assay with DLD-1, 18.5 µM (inactive); in the assay with EKVX, 16.7 µM (inactive); in the assay on HCT-116, 18.3 µM (inactive); in the assay on M14, 18 µM (inactive). Moreover, the GI50 with M19-MEL was 17.8 µM (inactive); in the assay on RPMI-8226 it was 16.3 µM (inactive); in the assay with SF-268, 20 µM (inactive); in the assay on SF-539, 16.3 µM (inactive); in the assay with SK-MEL-28 it was 17.4 µM (inactive); in the assay with SK-MEL-2 it was 17.3 µM (inactive). Also, the results for the GI50 in the assay with SK-MEL-5, in the assay with UO-31 and in the assay on XF498 were 19.1 µM (inactive), 16.5 µM (inactive) and 17.5 µM (inactive), respectively.
Turning to `CCCCNC(=O)OCC(COc1ccccc1OC)OC(=O)NCCCC` (centres undefined), the GI50 in the assay on CCRF-CEM, in the assay with COLO 205, in the assay on DLD-1, with EKVX, in the assay on HCT-116 and in the assay with M14 was > 100 µM (inactive) each time. In addition, the GI50 with M19-MEL is > 100 µM (inactive); in the assay with RPMI-8226, 95.9 µM (inactive); in the assay on SF-268, > 100 µM (inactive); in the assay on SF-539, > 100 µM (inactive); in the assay with SK-MEL-28 it was > 100 µM (inactive); with SK-MEL-2, > 100 µM (inactive). The values for the GI50 in the assay with SK-MEL-5, in the assay with UO-31 and in the assay with XF498 were 87.5 µM (inactive), 63.8 µM (inactive) and > 100 µM (inactive), respectively.
With `COC(OC)c1cccc2c1C(=O)CCC1(O)c3ccccc3C1C2` (centres undefined), the GI50 in the assay on CCRF-CEM is 44.9 µM (inactive); in the assay on COLO 205, > 100 µM (inactive); in the assay on DLD-1, > 100 µM (inactive); with EKVX, > 100 µM (inactive); in the assay on HCT-116 it was 33.7 µM (inactive); with M14, > 100 µM (inactive). Besides, the GI50 was > 100 µM (inactive) in the assay on M19-MEL; 12.2 µM (inactive) in the assay on RPMI-8226; > 100 µM (inactive) in the assay on SF-268; > 100 µM (inactive) in the assay on SF-539; > 100 µM (inactive) in the assay on SK-MEL-28; > 100 µM (inactive) in the assay with SK-MEL-2. For the same compound, the GI50 with SK-MEL-5, in the assay with UO-31 and with XF498 was > 100 µM (inactive) throughout.
On to `O=c1c2cc(Br)ccc2nc(CNc2ccccc2)n1-c1ccccc1`, for which the GI50 with CCRF-CEM was 3.09 µM (inactive); in the assay with COLO 205, 17.4 µM (inactive); in the assay with DLD-1, 9.02 µM (inactive); in the assay with EKVX, 21.9 µM (inactive); in the assay on HCT-116, 13.4 µM (inactive); with M14, 20.7 µM (inactive). The GI50 is 13.9 µM (inactive) in the assay on M19-MEL; 8.97 µM (inactive) with RPMI-8226; 17.4 µM (inactive) in the assay on SF-268; 16.2 µM (inactive) with SF-539; 22.4 µM (inactive) in the assay with SK-MEL-28; 20.7 µM (inactive) in the assay on SK-MEL-2. Moreover, the GI50 with SK-MEL-5 is 15.6 µM (inactive); in the assay with UO-31, > 43.9 µM (inactive); with XF498, 15.7 µM (inactive).
Turning to `Cc1cccc(NC(=O)/C=C/c2ccc(N(CCC#N)CCC#N)cc2C)c1`, the GI50 with CCRF-CEM was 33 µM (inactive); with COLO 205, > 100 µM (inactive); with DLD-1 it was > 100 µM (inactive); in the assay on EKVX it was > 100 µM (inactive); with HCT-116, > 100 µM (inactive); with M14, > 100 µM (inactive). Further, the GI50 with M19-MEL is > 100 µM (inactive); with RPMI-8226, > 100 µM (inactive); in the assay on SF-268, 81.5 µM (inactive); with SF-539, > 100 µM (inactive); in the assay on SK-MEL-28, > 100 µM (inactive); with SK-MEL-2 it was > 100 µM (inactive). The GI50 was > 100 µM (inactive) with SK-MEL-5, 24.5 µM (inactive) with UO-31 and > 100 µM (inactive) in the assay on XF498.
For the compound `C[C@]12CCC3c4ccc(OC(=O)c5ccccc5)cc4CC[C@H]3C1CC[C@@H]2OC(=O)C12OC1CCC2=O` (some centres undefined), the GI50 was 0.959 µM (active) in the assay on CCRF-CEM; 2.84 µM (inactive) with COLO 205; 2.47 µM (inactive) in the assay on DLD-1; 6.61 µM (inactive) in the assay with EKVX; 3.03 µM (inactive) with HCT-116; 5.79 µM (inactive) in the assay on M14. In addition, the GI50 in the assay on M19-MEL is 5.96 µM (inactive); in the assay with RPMI-8226, 4.23 µM (inactive); in the assay on SF-268 it was 2.68 µM (inactive); in the assay on SF-539 it was 2.34 µM (inactive); in the assay on SK-MEL-28, 6.11 µM (inactive); in the assay with SK-MEL-2 it was 7.94 µM (inactive). For the same compound, the GI50 in the assay with SK-MEL-5 is 4.69 µM (inactive); in the assay on UO-31, 5.75 µM (inactive); with XF498 it was 5.82 µM (inactive).
